Earlier results on one molecule are cited in publication PMC10673369, “Preliminary SAR of Novel Pleuromutilin–Polyamine Conjugates” (Microorganisms, 2023).

Molecules are shown by their SMILES.

Holding throughout (parameters): method as in PMID 22191527, PMID 27742734, PMID 23836172, PMID 30019769
The test system of data set [1] is aerobic Gram-positive bacteria. Particulars: incl. MRSA, VISA, hVISA, VRSA, PRSP, multidrug-resistant S. pneumoniae, VRE; cited from earlier work.
Data set [2] has as its system fastidious Gram-negative bacteria, including Haemophilus influenza and Moraxella catarrhalis. Particulars: incl. Haemophilus influenza and Moraxella catarrhalis; cited from earlier work.
In data set [3] the test system is non-fastidious Gram-negative bacteria. Particulars: cited from earlier work.

With `C=C[C@]1(C)C[C@@H](OC(=O)CS[C@@H]2CC[C@@H](N)C[C@H]2O)[C@]2(C)[C@H](C)CC[C@]3(CCC(=O)[C@H]32)[C@@H](C)[C@@H]1O` [Compound 6, lefamulin], in data set [1], the “Antibacterial activity against aerobic Gram-positive bacteria” value is on record as “potent antibacterial activity”. Besides, the “Antibacterial activity against fastidious Gram-negative bacteria” value in data set [2] is given as “favorable to moderate activity”. For the same molecule, the “Antibacterial activity against non-fastidious Gram-negative bacteria” value in data set [3] is given as “no activity”.
